Laboratory results from patent US8192962B2, “Processes for detecting toxic substances” (Daikin Industries, Ltd., priority 2001, dated 2012).

Test system: Genes belonging to other category
Assay: DNA chip mRNA expression in yeast, genes belonging to other category (Table 9)
Type: cell-based, Saccharomyces cerevisiae S288C
Summary of the method: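 Whole-genome yeast DNA chip hybridization (65° C., >12 h) of Cy-labeled cDNA from S288C cells exposed 2 h at 25° C. to a sub-lethal toxicant dose in YPD; value is intensity relative to chemical-free control.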

## [Cl][Hg][Cl] [(3), HgCl2]
Yeast gene YAR010C
  The level of expressed mRNA in the presence of chemical substance/The level of expressed mRNA in the absence of chemical substance: 1.2
Yeast gene YBL005W-A
  The level of expressed mRNA in the presence of chemical substance/The level of expressed mRNA in the absence of chemical substance: 0.5
Yeast gene YBL041W
  The level of expressed mRNA in the presence of chemical substance/The level of expressed mRNA in the absence of chemical substance: 0.9
Yeast gene YBL043W
  The level of expressed mRNA in the presence of chemical substance/The level of expressed mRNA in the absence of chemical substance: 1.1
Yeast gene YBL078C
  The level of expressed mRNA in the presence of chemical substance/The level of expressed mRNA in the absence of chemical substance: 1.3
Yeast gene YBR214W
  The level of expressed mRNA in the presence of chemical substance/The level of expressed mRNA in the absence of chemical substance: 5.7
Yeast gene YCL020W
  The level of expressed mRNA in the presence of chemical substance/The level of expressed mRNA in the absence of chemical substance: 0.5
Yeast gene YCL027W
  The level of expressed mRNA in the presence of chemical substance/The level of expressed mRNA in the absence of chemical substance: 1.0
Yeast gene YCR004C
  The level of expressed mRNA in the presence of chemical substance/The level of expressed mRNA in the absence of chemical substance: 12.0
Yeast gene YCR071C
  The level of expressed mRNA in the presence of chemical substance/The level of expressed mRNA in the absence of chemical substance: 0.9
Yeast gene YCR088W
  The level of expressed mRNA in the presence of chemical substance/The level of expressed mRNA in the absence of chemical substance: 1.2
Yeast gene YDL008W
  The level of expressed mRNA in the presence of chemical substance/The level of expressed mRNA in the absence of chemical substance: 1.0
Yeast gene YDL238C
  The level of expressed mRNA in the presence of chemical substance/The level of expressed mRNA in the absence of chemical substance: 1.1
Yeast gene YDR055W
  The level of expressed mRNA in the presence of chemical substance/The level of expressed mRNA in the absence of chemical substance: 2.2
Yeast gene YDR084C
  The level of expressed mRNA in the presence of chemical substance/The level of expressed mRNA in the absence of chemical substance: 1.5
Yeast gene YDR085C
  The level of expressed mRNA in the presence of chemical substance/The level of expressed mRNA in the absence of chemical substance: 1.6
Yeast gene YDR104C
  The level of expressed mRNA in the presence of chemical substance/The level of expressed mRNA in the absence of chemical substance: 1.2
Yeast gene YDR115W
  The level of expressed mRNA in the presence of chemical substance/The level of expressed mRNA in the absence of chemical substance: 0.6
Yeast gene YDR259C
  The level of expressed mRNA in the presence of chemical substance/The level of expressed mRNA in the absence of chemical substance: 0.4
Yeast gene YDR315C
  The level of expressed mRNA in the presence of chemical substance/The level of expressed mRNA in the absence of chemical substance: 1.0
Yeast gene YDR358W
  The level of expressed mRNA in the presence of chemical substance/The level of expressed mRNA in the absence of chemical substance: 0.7
Yeast gene YDR388W
  The level of expressed mRNA in the presence of chemical substance/The level of expressed mRNA in the absence of chemical substance: 1.2
Yeast gene YDR432W
  The level of expressed mRNA in the presence of chemical substance/The level of expressed mRNA in the absence of chemical substance: 1.0
Yeast gene YDR481C
  The level of expressed mRNA in the presence of chemical substance/The level of expressed mRNA in the absence of chemical substance: 1.3
Yeast gene YDR510W
  The level of expressed mRNA in the presence of chemical substance/The level of expressed mRNA in the absence of chemical substance: 1.5
Yeast gene YEL042W
  The level of expressed mRNA in the presence of chemical substance/The level of expressed mRNA in the absence of chemical substance: 1.7
Yeast gene YEL066W
  The level of expressed mRNA in the presence of chemical substance/The level of expressed mRNA in the absence of chemical substance: 1.5
Yeast gene YER039C
  The level of expressed mRNA in the presence of chemical substance/The level of expressed mRNA in the absence of chemical substance: 1.0
Yeast gene YER107C
  The level of expressed mRNA in the presence of chemical substance/The level of expressed mRNA in the absence of chemical substance: 1.0
Yeast gene YER130C
  The level of expressed mRNA in the presence of chemical substance/The level of expressed mRNA in the absence of chemical substance: 0.5
Yeast gene YFL022C
  The level of expressed mRNA in the presence of chemical substance/The level of expressed mRNA in the absence of chemical substance: 1.5
Yeast gene YFL028C
  The level of expressed mRNA in the presence of chemical substance/The level of expressed mRNA in the absence of chemical substance: 0.7
Yeast gene YFL043C
  The level of expressed mRNA in the presence of chemical substance/The level of expressed mRNA in the absence of chemical substance: 0.6
Yeast gene YGL158W
  The level of expressed mRNA in the presence of chemical substance/The level of expressed mRNA in the absence of chemical substance: 1.9
Yeast gene YGL229C
  The level of expressed mRNA in the presence of chemical substance/The level of expressed mRNA in the absence of chemical substance: 0.9
Yeast gene YGR136W
  The level of expressed mRNA in the presence of chemical substance/The level of expressed mRNA in the absence of chemical substance: 1.3
Yeast gene YGR189C
  The level of expressed mRNA in the presence of chemical substance/The level of expressed mRNA in the absence of chemical substance: 1.5
Yeast gene YGR213C
  The level of expressed mRNA in the presence of chemical substance/The level of expressed mRNA in the absence of chemical substance: 1.0
Yeast gene YGR257C
  The level of expressed mRNA in the presence of chemical substance/The level of expressed mRNA in the absence of chemical substance: 0.9
Yeast gene YHR004C
  The level of expressed mRNA in the presence of chemical substance/The level of expressed mRNA in the absence of chemical substance: 0.8
Yeast gene YHR071W
  The level of expressed mRNA in the presence of chemical substance/The level of expressed mRNA in the absence of chemical substance: 0.6
Yeast gene YHR139C
  The level of expressed mRNA in the presence of chemical substance/The level of expressed mRNA in the absence of chemical substance: 6.8
Yeast gene YHR142W
  The level of expressed mRNA in the presence of chemical substance/The level of expressed mRNA in the absence of chemical substance: 2.1
Yeast gene YIL123W
  The level of expressed mRNA in the presence of chemical substance/The level of expressed mRNA in the absence of chemical substance: 1.2
Yeast gene YIL140W
  The level of expressed mRNA in the presence of chemical substance/The level of expressed mRNA in the absence of chemical substance: 1.5
Yeast gene YJL073W
  The level of expressed mRNA in the presence of chemical substance/The level of expressed mRNA in the absence of chemical substance: 2.5
Yeast gene YJL089W
  The level of expressed mRNA in the presence of chemical substance/The level of expressed mRNA in the absence of chemical substance: 1.0
Yeast gene YJL116C
  The level of expressed mRNA in the presence of chemical substance/The level of expressed mRNA in the absence of chemical substance: 1.3
Yeast gene YJR004C
  The level of expressed mRNA in the presence of chemical substance/The level of expressed mRNA in the absence of chemical substance: 3.4
Yeast gene YJR086W
  The level of expressed mRNA in the presence of chemical substance/The level of expressed mRNA in the absence of chemical substance: 0.8
